According to patent US10856562B2, “Flavor composition and edible compositions containing same” (MARS, INCORPORATED, priority 2013, dated 2020):
Square brackets hold non-standard residues; d marks the D form. Ends that are not written are not given here. pGlu = O=C1CC[C@@H](C(=O)O)N1

Test system: panelists
Assay: Attribute perception scores of flavor enhancers in solution (Example 6)
Format: in vivo, human
Design: key to Metallic / Numbing / Atringent / Salt / Sweet / Sour / Bitter / Umami / Sour, mean evaluation score in solution / Numbing, mean evaluation score in solution / Astringent / Umami FF: 15-point intensity scale, 0 = none, 15 = very strong
Settings: for Astringent / Bitter / Flinty/Mineral / Metallic / Numbing / Salt / Sour / Sweet / Umami / Umami FF / Atringent / Mineral/Flinty / Umami/brothy: solution
Method: Descriptive attributes (e.g., taste, flavor and chemical feeling factors) of three use levels of pGlu-Cys (FE-35), pGlu-Cys-Gly (FE-36), pGlu-Cys-Cys (FE-37), pGlu-Cys-Val (FE-38) and pGlu-Val-Cys (UE-30) flavor composition peptides were determined. The three use levels were as follows: 1.0 ppb, 10.0 ppb and 100.0 ppb.
Data was collected for the attributes of the product in-mouth for the use levels according to the following protocol: • The samples were analyzed for flavor by six to nine members of a panel, trained and experienced in flavor evaluation using the Spectrum™ method. Samples were evaluated across multiple panel sessions. • The strength of each attribute was rated on a 15-point scale, where 0=none and 15=very strong. • This scale incorporates the ability to use tenths of a point and therefore has the potential of 150 scale differentiations. • The scale may be expanded beyond 15 points to include extreme ratings if necessary.
A summary of the concentrations of NaCl, water and flavor composition peptides in the solution samples is described in table 24.
The panelists evaluated each sample for the attributes described by table 25.

[1] = 10.0 ppb, mean evaluation score
[2] = 100.0 ppb, mean evaluation score
[3] = Concentration 1, MAX, 15-point scale
[4] = Concentration 1, MEAN, 15-point scale
[5] = Concentration 1, MIN, 15-point scale
[6] = Concentration 10, MAX, 15-point scale
[7] = Concentration 10, MEAN, 15-point scale
[8] = Concentration 10, MIN, 15-point scale
[9] = Concentration 100, MAX, 15-point scale
[10] = Concentration 100, MEAN, 15-point scale
[11] = Concentration 100, MIN, 15-point scale

With “[pGlu]-Cys-Cys (cysteine pairing not given here) [FE-37]” the “Mineral/Flinty aromatic in solution as the concentration increases” value (1.0 to 100 ppb) was “increase very slightly”, the “Salt perception level in solution as the concentration increases” value (1.0 to 100 ppb) was “shows no distinct pattern” and the “Umami aromatic in solution as the concentration increases” value (1.0 to 100 ppb) was “increase very slightly”. For the same substance, the “Umami feeling factor in solution as the concentration increases” value (1.0 to 100 ppb) was “increases very slightly by 100 ppb”, the “Umami feeling factor in solution as the concentration increases” value (1.0 to 100 ppb, listed as FE 37) was “increase very slightly” and the Astringent (1.0 ppb, mean evaluation score) was 0.0. It also gave a Bitter (1.0 ppb, mean evaluation score) of 0.0, a Flinty/Mineral (1.0 ppb, mean evaluation score) of 0.7 and a Metallic (1.0 ppb, mean evaluation score) of 0.0. It also gave a Numbing (1.0 ppb, mean evaluation score) of 0.0, a Salt (1.0 ppb, mean evaluation score) of 2.4 and a Sour (1.0 ppb, mean evaluation score) of 0.0. The Sweet (1.0 ppb, mean evaluation score) was 0.0, the Umami (1.0 ppb, mean evaluation score) was 0.1 and the “Umami FF” value (1.0 ppb, mean evaluation score) was 1.3. The Astringent [1] was 0.0, the Bitter [1] was 0.0 and the Flinty/Mineral [1] was 0.8. It also gave a Metallic [1] of 0.0, a Numbing [1] of 0.0 and a Salt [1] of 3.0. For the same substance, the Sour [1] was 0.0, the Sweet [1] was 0.1 and the Umami [1] was 0.2. The “Umami FF” value [1] was 1.3, the Astringent [2] was 0.0 and the Bitter [2] was 0.0. It also gave a Flinty/Mineral [2] of 0.9, a Metallic [2] of 0.1 and a Numbing [2] of 0.0. For the same substance, the Salt [2] was 2.8, the Sour [2] was 0.0 and the Sweet [2] was 0.2. For the same substance, the Umami [2] was 0.5, the “Umami FF” value [2] was 1.6 and the Atringent [3] was 0.0. For the same substance, the Bitter [3] was 00, the Metallic [3] was 0.0 and the Mineral/Flinty [3] was 1.5. The Numbing [3] was 0.0, the Salt [3] was 2.8 and the Sour [3] was 0.0. The Sweet [3] was 0.0, the Umami [3] was 2.0 and the Umami/brothy [3] was 0.8. The Atringent [4] was 0.0, the Bitter [4] was 0.0 and the Metallic [4] was 0.0. It also gave a Mineral/Flinty [4] of 0.7, a Numbing [4] of 0.0 and a Salt [4] of 2.4. It also gave a Sour [4] of 0.0, a Sweet [4] of 0.0 and a Umami [4] of 1.3. The Umami/brothy [4] was 0.1, the Atringent [5] was 0.0 and the Bitter [5] was 0.0. It also gave a Metallic [5] of 0.0, a Mineral/Flinty [5] of 0.0 and a Numbing [5] of 0.0. The Salt [5] was 2.0, the Sour [5] was 0.0 and the Sweet [5] was 0.0. For the same substance, the Umami [5] was 0.0, the Umami/brothy [5] was 0.0 and the Atringent [6] was 0.0. For the same substance, the Bitter [6] was 0.0, the Metallic [6] was 0.0 and the Mineral/Flinty [6] was 1.0. For the same substance, the Numbing [6] was 0.0, the Salt [6] was 3.5 and the Sour [6] was 0.0. It also gave a Sweet [6] of 0.8, a Umami [6] of 2.5 and a Umami/brothy [6] of 1.0. For the same substance, the Atringent [7] was 0.0, the Bitter [7] was 0.0 and the Metallic [7] was 0.0. For the same substance, the Mineral/Flinty [7] was 0.8, the Numbing [7] was 0.0 and the Salt [7] was 3.0. The Sour [7] was 0.0, the Sweet [7] was 0.1 and the Umami [7] was 1.3. The Umami/brothy [7] was 0.2, the Atringent [8] was 0.0 and the Bitter [8] was 0.0. For the same substance, the Metallic [8] was 0.0, the Mineral/Flinty [8] was 0.0 and the Numbing [8] was 0.0. For the same substance, the Salt [8] was 2.5, the Sour [8] was 0.0 and the Sweet [8] was 0.0. The Umami [8] was 0.0, the Umami/brothy [8] was 0.0 and the Atringent [9] was 0.0. It also gave a Bitter [9] of 0.0, a Metallic [9] of 0.8 and a Mineral/Flinty [9] of 1.5. The Numbing [9] was 0.0, the Salt [9] was 4.5 and the Sour [9] was 0.0. The Sweet [9] was 1.0, the Umami [9] was 3.0 and the Umami/brothy [9] was 1.0. For the same substance, the Atringent [10] was 0.0, the Bitter [10] was 0.0 and the Metallic [10] was 0.1. The Mineral/Flinty [10] was 0.9, the Numbing [10] was 0.0 and the Salt [10] was 2.8. It also gave a Sour [10] of 0.0, a Sweet [10] of 0.2 and a Umami [10] of 1.6. For the same substance, the Umami/brothy [10] was 0.5, the Atringent [11] was 0.0 and the Bitter [11] was 0.0. For the same substance, the Metallic [11] was 0.0, the Mineral/Flinty [11] was 0.0 and the Numbing [11] was 0.0. The Salt [11] was 1.5, the Sour [11] was 0.0 and the Sweet [11] was 0.0. For the same substance, the Umami [11] was 0.0 and the Umami/brothy [11] was 0.0.
